Reference: patent US20020065219A1, “Water soluble thiazolyl peptide derivatives” (priority 2000, published 2002)
Values after ≈ are worked out from the molar mass of the structure shown. Like-named read-outs stand apart in the source and are kept apart here. Values belong to the compound of their own block, whether it stands above or below them.

Key:
[1] = system: Staphylococcus aureus A15090; experiment: MIC, broth micro dilution assay (NCCLS); type: cell-based; details: for MIC: Staphylococcus aureus, read-out: MIC (μg/mL) against Staphylococcus aureus A15090
[2] = system: Enterococcus faecalis A20688; experiment: MIC, broth micro dilution assay (NCCLS); type: cell-based; details: for MIC: Enterococcus faecalis, read-out: MIC (μg/mL) against Enterococcus faecalis A20688
[3] = system: Staphylococcus aureus A15090; experiment: animal or person; type: in vivo, female ICR mice; details: A15090, in Mus musculus, iv, 1 h, read-out: PD50 (dose which protects 50% of mice from mortality)
[4] = system: Streptococcus pneumoniae A28272; experiment: MIC, broth micro dilution assay (NCCLS); type: cell-based; details: for MIC: Streptococcus pneumoniae, read-out: MIC (μg/mL) against Streptococcus pneumoniae A28272
[5] = Mueller-Hinton medium, 35° C., 18 hours
[6] = 50% Mueller-Hinton medium and 50% Todd Hewitt medium, 35° C., 18 hours

SMILES: CO/C(C)=C1/NC(=O)C(C(C)O)NC(=O)c2csc(n2)-c2cc(O)c(-c3nc(C(=O)NC(CN4CCN(C)CC4)C(N)=O)cs3)nc2-c2csc(n2)C2COC(=O)c3c4c5c(cccc5n3O)COC(=O)C(O[C@H]3C[C@](C)(O)[C@H](N(C)C)[C@H](C)O3)C(OC4)C(NC(=O)c3csc1n3)c1nc(cs1)C(=O)N2 (stereo partly shown) [Example 1]
- MIC ([1]; A15090, 18 h): 0.25 µg/mL (≈ 0.163 µM)
- MIC ([2]; A20688, 18 h): 0.5 µg/mL (≈ 0.325 µM)
- ED50 [3]: 0.19 to 7.3 mg/kg
- MIC ([4]; A28272, 18 h): 0.125 µg/mL (≈ 0.0813 µM)

SMILES: CO/C(C)=C1/NC(=O)C(C(C)O)NC(=O)c2csc(n2)-c2cc(O)c(-c3nc(C(=O)NC(CNCCc4ccccn4)C(N)=O)cs3)nc2-c2csc(n2)C2COC(=O)c3c4c5c(cccc5n3O)COC(=O)C(O[C@H]3C[C@](C)(O)[C@H](N(C)C)[C@H](C)O3)C(OC4)C(NC(=O)c3csc1n3)c1nc(cs1)C(=O)N2 (stereo partly shown) [Example 3]
- MIC ([1]; A15090, 18 h): 1 µg/mL (≈ 0.641 µM)
- MIC ([2]; A20688, 18 h): 1 µg/mL (≈ 0.641 µM)
- ED50 [3]: 0.19 to 7.3 mg/kg
- MIC ([4]; A28272, 18 h): 0.25 µg/mL (≈ 0.16 µM)

SMILES: CO/C(C)=C1/NC(=O)C([C@@H](C)O)NC(=O)c2csc(n2)-c2cc(O)c(-c3nc(C(=O)NC(CNCCCn4ccnc4)C(N)=O)cs3)nc2-c2csc(n2)[C@@H]2COC(=O)c3c4c5c(cccc5n3O)COC(=O)[C@@H](O[C@H]3C[C@](C)(O)[C@H](N(C)C)[C@H](C)O3)[C@H](OC4)[C@H](NC(=O)c3csc1n3)c1nc(cs1)C(=O)N2 (stereo partly shown) [Example 5]
- MIC ([1]; A15090, 18 h): 1 µg/mL (≈ 0.64 µM)
- MIC ([2]; A20688, 18 h): 1 µg/mL (≈ 0.64 µM)
- ED50 [3]: 0.19 to 7.3 mg/kg
- MIC ([4]; A28272, 18 h): 0.03 µg/mL (≈ 0.0192 µM)

SMILES: CO/C(C)=C1/NC(=O)C([C@@H](C)O)NC(=O)c2csc(n2)-c2cc(O)c(-c3nc(C(=O)NC(CN4CCOCC4)C(N)=O)cs3)nc2-c2csc(n2)[C@@H]2COC(=O)c3c4c5c(cccc5n3O)COC(=O)[C@@H](O[C@H]3C[C@](C)(O)[C@H](N(C)C)[C@H](C)O3)[C@@H](OC4)[C@H](NC(=O)c3csc1n3)c1nc(cs1)C(=O)N2 (stereo partly shown) [Example 8]
- MIC ([1]; A15090, 18 h): 0.015 µg/mL (≈ 0.00984 µM)
- MIC ([2]; A20688, 18 h): 0.125 µg/mL (≈ 0.082 µM)
- ED50 [3]: 0.19 to 7.3 mg/kg
- MIC ([4]; A28272, 18 h): 0.003 µg/mL (≈ 0.00197 µM)

SMILES: COC(C)=C1NC(=O)C(C(C)O)NC(=O)c2csc(n2)-c2cc(O)c(-c3nc(C(=O)NC(CN4CCN(Cc5nc(OC)cc(OC)n5)CC4)C(N)=O)cs3)nc2-c2csc(n2)C2COC(=O)c3c4c5c(cccc5n3O)COC(=O)C(OC3CC(C)(O)C(N(C)C)C(C)O3)C(OC4)C(NC(=O)c3csc1n3)c1nc(cs1)C(=O)N2 (stereo not shown) [Example 77]
- MIC (μg/mL) against Staphylococcus aureus A15090 [1]: 0.125 µg/mL (≈ 0.0746 µM)
- MIC (μg/mL) against Enterococcus faecalis A20688 [2]: 0.5 µg/mL (≈ 0.298 µM)
- MIC (μg/mL) against Streptococcus pneumoniae A28272 [4]: 0.015 µg/mL (≈ 0.00895 µM)

- MIC (μg/mL) against Staphylococcus aureus A15090 [1, 5]: 0.25 µg/mL (≈ 0.16 µM)
- MIC (μg/mL) against Enterococcus faecalis A20688 [2, 5]: 0.25 µg/mL (≈ 0.16 µM)
- MIC (μg/mL) against Streptococcus pneumoniae A28272 [4, 6]: 0.03 µg/mL (≈ 0.0192 µM)
SMILES: CO/C(C)=C1/NC(=O)C(C(C)O)NC(=O)c2csc(n2)-c2cc(O)c(-c3nc(C(=O)NC(CN[C@@H](C)c4ccccc4)C(N)=O)cs3)nc2-c2csc(n2)C2COC(=O)c3c4c5c(cccc5n3O)COC(=O)C(O[C@H]3C[C@](C)(O)[C@H](N(C)C)[C@H](C)O3)C(OC4)C(NC(=O)c3csc1n3)c1nc(cs1)C(=O)N2 (stereo partly shown) [Example 61]

SMILES: CO/C(C)=C1/NC(=O)C(C(C)O)NC(=O)c2csc(n2)-c2cc(O)c(-c3nc(C(=O)NC(CN4CCC[C@H]4CN4CCCC4)C(N)=O)cs3)nc2-c2csc(n2)C2COC(=O)c3c4c5c(cccc5n3O)COC(=O)C(O[C@H]3C[C@](C)(O)[C@H](N(C)C)[C@H](C)O3)C(OC4)C(NC(=O)c3csc1n3)c1nc(cs1)C(=O)N2 (stereo partly shown) [Example 65]
- MIC (μg/mL) against Staphylococcus aureus A15090 [1]: 0.03 µg/mL (≈ 0.0188 µM)
- MIC (μg/mL) against Enterococcus faecalis A20688 [2]: 1.0 µg/mL (≈ 0.628 µM)
- MIC (μg/mL) against Streptococcus pneumoniae A28272 [4]: 2.0 µg/mL (≈ 1.26 µM)

SMILES: CNC(=O)On1c2c3c4c(cccc41)COC(=O)C(OC1CC(C)(O)C(N(C)C)C(C)O1)C(OC3)C1NC(=O)c3csc(n3)C(=C(C)OC)NC(=O)C(C(C)O)NC(=O)c3csc(n3)-c3cc(O)c(-c4nc(C(=O)NC(CN(C)C(=O)NC)C(N)=O)cs4)nc3-c3csc(n3)C(COC2=O)NC(=O)c2csc1n2 (stereo not shown) [Example 108]
- MIC (μg/mL) against Staphylococcus aureus A15090 [1, 5]: 0.125 µg/mL (≈ 0.079 µM)
- MIC (μg/mL) against Enterococcus faecalis A20688 [2, 5]: 0.5 µg/mL (≈ 0.316 µM)
- MIC (μg/mL) against Streptococcus pneumoniae A28272 [4, 6]: 0.03 µg/mL (≈ 0.019 µM)

SMILES: CO/C(C)=C1/NC(=O)C(C(C)O)NC(=O)c2csc(n2)-c2cc(O)c(-c3nc(C(=O)NC(CNCCCCN)C(N)=O)cs3)nc2-c2csc(n2)C2COC(=O)c3c4c5c(cccc5n3O)COC(=O)C(O[C@H]3C[C@](C)(O)[C@H](N(C)C)[C@H](C)O3)C(OC4)C(NC(=O)c3csc1n3)c1nc(cs1)C(=O)N2 (stereo partly shown) [Example 11]
- MIC (μg/mL) against Staphylococcus aureus A15090 [1, 5]: 2.0 µg/mL (≈ 1.31 µM)
- MIC (μg/mL) against Enterococcus faecalis A20688 [2, 5]: 8.0 µg/mL (≈ 5.24 µM)
- MIC (μg/mL) against Streptococcus pneumoniae A28272 [4, 6]: 0.5 µg/mL (≈ 0.328 µM)

- MIC (μg/mL) against Staphylococcus aureus A15090 [1, 5]: 0.06 µg/mL (≈ 0.0428 µM)
- MIC (μg/mL) against Enterococcus faecalis A20688 [2, 5]: 0.06 µg/mL (≈ 0.0428 µM)
- MIC (μg/mL) against Streptococcus pneumoniae A28272 [4, 6]: 0.001 µg/mL (≈ 0.000713 µM)
SMILES: COC(C)=C1NC(=O)C(C(C)O)NC(=O)c2csc(n2)-c2cc(O)c(-c3nc(C(=O)NC(CN(C)CCc4ccccn4)C(N)=O)cs3)nc2-c2csc(n2)C2COC(=O)c3c4c5c(cccc5n3O)COC(=O)C(O)C(OC4)C(NC(=O)c3csc1n3)c1nc(cs1)C(=O)N2 (stereo not shown) [Example 93]

SMILES: CO/C(C)=C1/NC(=O)C(C(C)O)NC(=O)c2csc(n2)-c2cc(O)c(-c3nc(C(=O)NC(CNCCOCCOCCOCCN)C(N)=O)cs3)nc2-c2csc(n2)C2COC(=O)c3c4c5c(cccc5n3O)COC(=O)C(O[C@H]3C[C@](C)(O)[C@H](N(C)C)[C@H](C)O3)C(OC4)C(NC(=O)c3csc1n3)c1nc(cs1)C(=O)N2 (stereo partly shown) [Example 58]
- MIC (μg/mL) against Staphylococcus aureus A15090 [1]: 1.0 µg/mL (≈ 0.614 µM)
- MIC (μg/mL) against Enterococcus faecalis A20688 [2]: 1.0 µg/mL (≈ 0.614 µM)
- MIC (μg/mL) against Streptococcus pneumoniae A28272 [4]: 0.25 µg/mL (≈ 0.153 µM)

- MIC (μg/mL) against Staphylococcus aureus A15090 [1, 5]: 0.03 µg/mL (≈ 0.0217 µM)
- MIC (μg/mL) against Enterococcus faecalis A20688 [2, 5]: 0.5 µg/mL (≈ 0.362 µM)
- MIC (μg/mL) against Streptococcus pneumoniae A28272 [4, 6]: 0.003 µg/mL (≈ 0.00217 µM)
SMILES: COCC1CCCN1CC(NC(=O)c1csc(-c2nc3c(cc2O)-c2nc(cs2)C(=O)NC(C(C)O)C(=O)NC(=C(C)OC)c2nc(cs2)C(=O)NC2c4nc(cs4)C(=O)NC(COC(=O)c4c5c6c(cccc6n4O)COC(=O)C(O)C2OC5)c2nc-3cs2)n1)C(N)=O (stereo not shown) [Example 98]

SMILES: CNCCNCC(NC(=O)c1csc(-c2nc3c(cc2O)-c2nc(cs2)C(=O)NC(C(C)O)C(=O)N/C(=C(\C)OC)c2nc(cs2)C(=O)NC2c4nc(cs4)C(=O)NC(COC(=O)c4c5c6c(cccc6n4O)COC(=O)C(O[C@H]4C[C@](C)(O)[C@H](N(C)C)[C@H](C)O4)C2OC5)c2nc-3cs2)n1)C(N)=O (stereo partly shown) [Example 28]
- MIC (μg/mL) against Staphylococcus aureus A15090 [1]: 0.25 µg/mL (≈ 0.165 µM)
- MIC (μg/mL) against Enterococcus faecalis A20688 [2]: 0.5 µg/mL (≈ 0.331 µM)
- MIC (μg/mL) against Streptococcus pneumoniae A28272 [4]: 0.03 µg/mL (≈ 0.0198 µM)

- MIC ([1]; A15090, Mueller-Hinton medium, 35° C., 18 hours): 0.125 µg/mL (≈ 0.0918 µM)
- MIC ([2]; A20688, Mueller-Hinton medium, 35° C., 18 hours): 0.125 µg/mL (≈ 0.0918 µM)
- MIC ([4]; A28272, 50% Mueller-Hinton medium and 50% Todd Hewitt medium, 35° C., 18 hours): 0.003 µg/mL (≈ 0.0022 µM)
SMILES: C/C=C1\NC(=O)C(C(C)O)NC(=O)c2csc(n2)-c2cc(O)c(-c3nc(C(=O)NC(CN(C)CCCn4ccnc4)C(N)=O)cs3)nc2-c2csc(n2)C2CSC(=O)c3[nH]c4cccc(c4c3C)COC(=O)C(O)CC(NC(=O)c3csc1n3)c1nc(cs1)C(=O)N2 (stereo not shown) [Example 101]

SMILES: CO/C(C)=C1/NC(=O)C(C(C)O)NC(=O)c2csc(n2)-c2cc(O)c(-c3nc(C(=O)NC(CNCCN(CCN)CCN)C(N)=O)cs3)nc2-c2csc(n2)C2COC(=O)c3c4c5c(cccc5n3O)COC(=O)C(O[C@H]3C[C@](C)(O)[C@H](N(C)C)[C@H](C)O3)C(OC4)C(NC(=O)c3csc1n3)c1nc(cs1)C(=O)N2 (stereo partly shown) [Example 12]
- MIC (μg/mL) against Staphylococcus aureus A15090 [1, 5]: 2.0 µg/mL (≈ 1.26 µM)
- MIC (μg/mL) against Enterococcus faecalis A20688 [2, 5]: 4.0 µg/mL (≈ 2.53 µM)
- MIC (μg/mL) against Streptococcus pneumoniae A28272 [4, 6]: 0.5 µg/mL (≈ 0.316 µM)
